Activity calls are given as the source filed them.
Key:
Coagulation factor XII = target: T1, Coagulation factor XII (Homo sapiens, UniProt P00748); type: functional;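 note: activated factor XIIa alpha cleaving a fluorogenic AMC peptide substrate; inhibitor potency from loss of enzyme activity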
T1 sequence (P00748 whole entry): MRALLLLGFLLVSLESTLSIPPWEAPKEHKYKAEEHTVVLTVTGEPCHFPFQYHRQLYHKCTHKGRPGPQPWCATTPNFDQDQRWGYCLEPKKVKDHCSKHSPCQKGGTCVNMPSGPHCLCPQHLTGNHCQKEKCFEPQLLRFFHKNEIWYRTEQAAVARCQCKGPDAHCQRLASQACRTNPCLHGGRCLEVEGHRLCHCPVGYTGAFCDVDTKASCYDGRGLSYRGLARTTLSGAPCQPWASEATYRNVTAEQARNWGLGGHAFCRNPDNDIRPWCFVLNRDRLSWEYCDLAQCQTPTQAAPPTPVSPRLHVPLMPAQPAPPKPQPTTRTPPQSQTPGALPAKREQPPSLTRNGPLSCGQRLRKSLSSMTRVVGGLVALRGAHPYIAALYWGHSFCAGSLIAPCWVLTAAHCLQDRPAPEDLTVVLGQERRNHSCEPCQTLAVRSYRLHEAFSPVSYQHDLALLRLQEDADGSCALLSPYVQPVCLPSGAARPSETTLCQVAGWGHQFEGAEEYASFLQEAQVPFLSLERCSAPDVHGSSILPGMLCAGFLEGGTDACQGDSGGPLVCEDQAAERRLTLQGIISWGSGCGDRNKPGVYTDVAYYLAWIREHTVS

[1] = target: FAD-linked sulfhydryl oxidase ALR (Homo sapiens, UniProt P55789); assay: ALR-catalysed DTT oxidation blockers – biochemical, H2O2 detection, luminescence, cherry-pick, dose response (AID 493248)
Vero [2] = assay: cells; type: functional, cell-based; conditions: Chlorocebus sabaeus
Vero [3] = assay: cells; type: functional; conditions: Chlorocebus sabaeus
P388/ADR = assay: cells; type: functional; conditions: Mus musculus
SN12K1 = assay: cells; type: functional; conditions: Homo sapiens
P388 = assay: cells; type: functional; conditions: Mus musculus
[4] = target: Heat shock protein HSP 90-alpha (Homo sapiens, UniProt P07900); type: functional, organism-based
Caspase-3 = target: T2, Caspase-3 (Homo sapiens, UniProt P42574); type: functional;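 note: Dose-response selectivity test against caspase-3 for candidate inhibitors of sentrin-specific proteases (SENPs)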
T2 sequence (P42574 whole entry): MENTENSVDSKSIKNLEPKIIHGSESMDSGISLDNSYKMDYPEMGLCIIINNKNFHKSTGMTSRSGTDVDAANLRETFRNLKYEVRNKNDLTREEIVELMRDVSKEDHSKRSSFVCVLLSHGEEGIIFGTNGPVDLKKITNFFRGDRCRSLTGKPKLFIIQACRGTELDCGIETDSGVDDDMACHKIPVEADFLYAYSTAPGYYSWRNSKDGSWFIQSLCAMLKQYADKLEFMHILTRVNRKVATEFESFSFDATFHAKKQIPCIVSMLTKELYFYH

[5] = target: T3, Sentrin-specific protease 7 (Homo sapiens, UniProt Q9BQF6); type: functional;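 note: Luminescence-based dose-response confirmation of ultra-high-throughput screening hits, measuring inhibition of SENP7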
T3 sequence (Q9BQF6 whole entry): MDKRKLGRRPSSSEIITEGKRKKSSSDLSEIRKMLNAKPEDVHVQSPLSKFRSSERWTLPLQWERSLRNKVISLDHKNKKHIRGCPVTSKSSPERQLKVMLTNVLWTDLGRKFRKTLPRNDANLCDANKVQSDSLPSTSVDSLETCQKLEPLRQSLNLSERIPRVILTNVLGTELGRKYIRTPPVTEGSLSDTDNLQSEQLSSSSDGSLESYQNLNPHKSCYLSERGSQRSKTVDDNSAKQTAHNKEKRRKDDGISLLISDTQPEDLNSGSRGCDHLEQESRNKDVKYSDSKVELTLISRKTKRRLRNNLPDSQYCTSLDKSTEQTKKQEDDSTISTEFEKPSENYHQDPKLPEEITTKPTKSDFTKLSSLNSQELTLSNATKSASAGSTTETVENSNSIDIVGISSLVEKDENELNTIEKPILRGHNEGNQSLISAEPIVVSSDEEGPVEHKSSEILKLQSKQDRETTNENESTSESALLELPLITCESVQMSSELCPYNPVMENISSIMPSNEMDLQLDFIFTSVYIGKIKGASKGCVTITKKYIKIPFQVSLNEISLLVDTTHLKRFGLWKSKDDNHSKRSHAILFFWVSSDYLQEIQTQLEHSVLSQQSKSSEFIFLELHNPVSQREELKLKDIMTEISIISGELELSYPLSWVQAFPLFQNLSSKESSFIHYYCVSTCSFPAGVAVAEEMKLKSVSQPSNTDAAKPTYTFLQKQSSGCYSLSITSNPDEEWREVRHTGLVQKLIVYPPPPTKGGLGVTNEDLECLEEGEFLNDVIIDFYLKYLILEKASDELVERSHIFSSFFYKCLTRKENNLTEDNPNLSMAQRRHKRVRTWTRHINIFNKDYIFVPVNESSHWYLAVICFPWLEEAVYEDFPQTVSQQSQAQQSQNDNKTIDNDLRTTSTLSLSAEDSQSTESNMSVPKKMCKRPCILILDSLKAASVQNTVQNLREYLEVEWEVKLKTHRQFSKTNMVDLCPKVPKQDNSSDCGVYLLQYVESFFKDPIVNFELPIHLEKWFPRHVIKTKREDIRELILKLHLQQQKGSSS

[6] = target: T4, Sentrin-specific protease 6 (Homo sapiens, UniProt Q9GZR1); type: functional;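 note: Luminescence-based dose-response confirmatory assay of SENP6 inhibition, following up an ultra-high-throughput screen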
T4 sequence (Q9GZR1 whole entry): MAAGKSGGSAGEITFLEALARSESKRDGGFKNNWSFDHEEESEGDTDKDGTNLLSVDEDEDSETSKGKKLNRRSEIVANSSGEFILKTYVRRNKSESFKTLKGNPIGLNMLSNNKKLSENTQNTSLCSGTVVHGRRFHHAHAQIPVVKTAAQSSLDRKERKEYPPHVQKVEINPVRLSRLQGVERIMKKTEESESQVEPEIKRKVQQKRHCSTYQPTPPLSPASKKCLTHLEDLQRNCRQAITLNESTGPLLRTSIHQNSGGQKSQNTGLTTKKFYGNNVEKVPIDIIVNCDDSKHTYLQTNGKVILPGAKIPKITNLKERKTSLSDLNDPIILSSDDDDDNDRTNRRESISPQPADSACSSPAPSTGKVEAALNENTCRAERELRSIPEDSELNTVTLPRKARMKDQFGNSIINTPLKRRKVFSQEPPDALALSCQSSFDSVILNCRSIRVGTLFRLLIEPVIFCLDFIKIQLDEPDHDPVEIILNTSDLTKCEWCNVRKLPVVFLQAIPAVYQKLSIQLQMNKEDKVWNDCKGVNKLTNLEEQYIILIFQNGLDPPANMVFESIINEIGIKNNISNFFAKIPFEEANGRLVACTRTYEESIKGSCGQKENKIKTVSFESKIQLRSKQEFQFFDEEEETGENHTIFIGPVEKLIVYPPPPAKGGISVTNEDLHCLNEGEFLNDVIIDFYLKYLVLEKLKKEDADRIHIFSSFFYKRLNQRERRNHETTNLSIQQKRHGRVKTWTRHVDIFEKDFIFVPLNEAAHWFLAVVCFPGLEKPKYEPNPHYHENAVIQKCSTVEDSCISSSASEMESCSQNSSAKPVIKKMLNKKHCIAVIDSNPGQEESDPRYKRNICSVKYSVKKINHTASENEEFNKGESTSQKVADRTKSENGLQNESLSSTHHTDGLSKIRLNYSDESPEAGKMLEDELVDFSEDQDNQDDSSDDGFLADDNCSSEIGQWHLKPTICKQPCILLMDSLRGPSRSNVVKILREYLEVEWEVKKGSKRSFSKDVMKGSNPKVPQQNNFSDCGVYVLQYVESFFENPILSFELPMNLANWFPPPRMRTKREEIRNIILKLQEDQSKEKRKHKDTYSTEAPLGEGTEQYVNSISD

[7] = target: T5, Sentrin-specific protease 8 (Homo sapiens, UniProt Q96LD8); type: functional;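 note: luminescence read-out of SENP8 inhibition, dose-response confirmation following an ultra-high-throughput screen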
T5 sequence (Q96LD8 whole entry): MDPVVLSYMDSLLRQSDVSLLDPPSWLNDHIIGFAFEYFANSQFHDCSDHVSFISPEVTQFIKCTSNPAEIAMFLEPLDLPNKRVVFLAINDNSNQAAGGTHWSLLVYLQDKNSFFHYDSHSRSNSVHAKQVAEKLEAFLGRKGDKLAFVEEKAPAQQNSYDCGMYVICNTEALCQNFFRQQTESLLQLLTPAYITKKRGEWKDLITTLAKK

Nonstructural protein 1 = Nonstructural protein 1 (Influenza A virus, UniProt Q194T2); type: functional, Influenza A virus (A/California/07/2009(H1N1))
INS1 = assay: INS-1E survival protection against cytokine death – cell-based, luminescence, retest, dose response (AID 449756); type: functional; conditions: Rattus norvegicus;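 note: cell death triggered by IL-1 beta plus TNF-alpha plus IFN-gamma mixture; protective hits raise ATP signal compared with cytokine alone wells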
[8] = target: T6, Ubiquitin-conjugating enzyme E2 N (Homo sapiens, UniProt P61088); type: functional;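 note: Dose-response confirmation in a TR-FRET assay detecting UBC13-driven polyubiquitin chain formation, inhibition measured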
T6 sequence (P61088 whole entry): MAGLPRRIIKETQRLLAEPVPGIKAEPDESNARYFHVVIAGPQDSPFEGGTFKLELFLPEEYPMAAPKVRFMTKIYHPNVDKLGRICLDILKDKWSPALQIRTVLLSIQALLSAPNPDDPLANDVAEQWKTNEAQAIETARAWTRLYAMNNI

Cytochrome P450 2C19 = Cytochrome P450 2C19 (Homo sapiens, UniProt P33261); assay: Cytochrome panel assay with activity outcomes. Panel member name: p450-cyp2c19 Compounds with AC50 equal or less than 10 uM are considered active; type: functional; conditions: read-out: AC50
Cytochrome P450 2D6 = Cytochrome P450 2D6 (Homo sapiens, UniProt P10635);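 note: CYP2D6 member of a cytochrome P450 panel assay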
[9] = Luminescence Cell-Based Dose Response HTS to Identify Activators of Luciferase Translation or Activity in H4 […] Cells. [Related pubchem assays: 1829 (Project Summary), 1814 (Primary HTS)]; type: functional
BJ [10] = assay: BJ-TERT fibroblast viability loss – cell-based, RAS-independent, luminescence, dose response (AID 1933); type: functional; conditions: Homo sapiens
H4 = assay: Luminescence Cell-Based Dose Response HTS to Identify Activators of 5'UTR Stem-Loop Driven Prion Protein mRNA Translation in H4 Neuroglioblastoma Cells. [Related pubchem assays: 1829 (Project Summary), 1814 (Primary HTS)]; type: functional; conditions: Homo sapiens
BJ [11] = assay: cells; type: functional, cell-based; conditions: Homo sapiens
BJ [12] = assay: BJ-TERT-LT-ST fibroblast viability loss – cell-based, RAS-independent, luminescence, dose response (AID 1935); type: functional; conditions: Homo sapiens;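 note: BJ fibroblasts immortalized with TERT plus LT and ST oncogenes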
[13] = DRD fibroblast viability loss – cell-based, non-viral oncogenic, luminescence, dose response (AID 1934); type: functional; conditions: Homo sapiens
[14] = microbe, parasite or virus in culture; type: functional; conditions: Mycobacterium tuberculosis
[15] = Luminescence Cell-Based Dose Retest to Confirm Inhibitors of Cancer Stem Cells. [Related pubchem assays (depositor defined):AID2717, AID2721]; type: functional; conditions: Homo sapiens

Sequence of Nonstructural protein 1 (Q194T2 whole entry): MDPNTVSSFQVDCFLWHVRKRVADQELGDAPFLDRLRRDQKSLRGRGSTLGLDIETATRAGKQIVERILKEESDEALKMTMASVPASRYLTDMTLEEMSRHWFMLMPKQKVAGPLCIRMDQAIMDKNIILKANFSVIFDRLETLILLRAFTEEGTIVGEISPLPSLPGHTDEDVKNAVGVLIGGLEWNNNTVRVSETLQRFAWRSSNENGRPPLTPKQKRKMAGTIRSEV
Sequence of FAD-linked sulfhydryl oxidase ALR (P55789 whole entry): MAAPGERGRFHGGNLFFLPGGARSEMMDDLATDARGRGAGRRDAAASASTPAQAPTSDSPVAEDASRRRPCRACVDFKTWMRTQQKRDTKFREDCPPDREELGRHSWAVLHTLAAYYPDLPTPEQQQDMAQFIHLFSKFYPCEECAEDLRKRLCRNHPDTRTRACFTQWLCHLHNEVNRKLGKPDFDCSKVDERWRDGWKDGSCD
Sequence of Cytochrome P450 2C19 (P33261 whole entry): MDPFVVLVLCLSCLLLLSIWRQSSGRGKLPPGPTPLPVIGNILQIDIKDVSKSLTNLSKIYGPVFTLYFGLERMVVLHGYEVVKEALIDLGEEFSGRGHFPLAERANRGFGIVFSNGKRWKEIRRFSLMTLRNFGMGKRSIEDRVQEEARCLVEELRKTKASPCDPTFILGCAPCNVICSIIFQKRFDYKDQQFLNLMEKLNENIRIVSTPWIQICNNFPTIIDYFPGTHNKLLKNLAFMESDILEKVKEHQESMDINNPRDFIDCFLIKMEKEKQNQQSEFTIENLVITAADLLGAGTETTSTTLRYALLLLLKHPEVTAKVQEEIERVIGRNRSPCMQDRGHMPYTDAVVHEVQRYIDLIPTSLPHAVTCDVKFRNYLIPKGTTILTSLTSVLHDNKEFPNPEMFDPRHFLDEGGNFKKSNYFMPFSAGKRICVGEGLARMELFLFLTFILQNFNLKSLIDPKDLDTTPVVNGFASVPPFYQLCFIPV
Sequence of Cytochrome P450 2D6 (P10635 whole entry): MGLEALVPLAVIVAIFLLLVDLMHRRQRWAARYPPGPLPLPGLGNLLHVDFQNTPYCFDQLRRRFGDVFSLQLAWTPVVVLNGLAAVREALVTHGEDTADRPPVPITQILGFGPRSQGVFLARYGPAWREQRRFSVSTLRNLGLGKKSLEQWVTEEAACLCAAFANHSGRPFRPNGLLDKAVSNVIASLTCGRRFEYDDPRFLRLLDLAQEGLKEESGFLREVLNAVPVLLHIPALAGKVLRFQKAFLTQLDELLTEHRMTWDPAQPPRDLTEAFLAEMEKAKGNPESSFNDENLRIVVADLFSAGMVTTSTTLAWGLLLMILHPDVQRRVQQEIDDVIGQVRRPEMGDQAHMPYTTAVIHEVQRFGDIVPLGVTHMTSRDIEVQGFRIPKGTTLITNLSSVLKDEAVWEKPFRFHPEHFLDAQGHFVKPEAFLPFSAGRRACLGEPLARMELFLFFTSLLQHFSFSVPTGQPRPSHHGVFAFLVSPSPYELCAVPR

O=C(NCCCN1CCCC1)c1ccc2c(Cl)c3c(nc2c1)CCCC3
IC50 (Coagulation factor XII): > 50 µM (inconclusive) | AC50 [1]: 0.01 µM (active) | IC50 (Vero [2]): > 25 µM (active) | CC50 (Vero [3]): > 25 µM (active)

COc1ccc(-c2nc3ccc([N+](=O)[O-])cc3c(=O)[nH]2)cc1
GI50 (P388/ADR): > 100 µM (inactive) | GI50 (SN12K1): 26 µM (inactive) | GI50 (P388): > 100 µM (inactive)

N#C[C@H](OC1OC(COC2OC(CO)C(O)C(O)C2O)C(O)C(O)C1O)c1ccccc1 (stereo partly specified)
GI50 (P388/ADR): 170 µM (inactive) | GI50 (SN12K1): > 250 µM (inactive) | GI50 (P388): 232 µM (inactive)

O=C1CC(N2CCCCCC2)C(=O)N1c1ccc2c(c1)OCO2 (stereo unspecified)
AC50 [4]: 4.79 µM (active)

C/C(=N\OC(=O)c1ccc(Cl)cc1)c1nccs1
IC50 (Caspase-3): 15.1 µM (active) | IC50 [5]: 2.63 µM (active) | IC50 [6]: 11.7 µM (active) | IC50 [7]: 19.2 µM (active)

Cc1ccc2ccc3cccnc3c2n1
IC50 (Nonstructural protein 1): 14.5 µM (active) | AC50 (INS1): 0.865 µM (active)

CCOC(=O)c1ccc(NC(=O)c2[nH]cnc2C(=O)NC2CCN(C(=O)OC(C)(C)C)CC2)cc1
IC50 [8]: > 20 µM (inactive)

Cc1sc(N/N=C/c2cccnc2)nc1-c1ccccc1
AC50 (Cytochrome P450 2C19): 0.501 µM (inconclusive) | IC50 (Vero [2]): > 25 µM (active) | CC50 (Vero [3]): > 25 µM (active) | AC50 (Cytochrome P450 2D6): 0.794 µM (inconclusive)

CCOC(=O)Nc1ccc2nc(N3CCCCCC3)sc2c1
EC50 [9]: 0.153 µM (active) | EC50 (BJ [10]): 10.3 µM (inconclusive) | EC50 (H4): > 120 µM (not active) | EC50 (BJ [11]): 111 µM (active) | EC50 (BJ [12]): 55.5 µM (inconclusive) | EC50 [13]: 4.7 µM (inconclusive) | IC50 (Caspase-3): 31.1 µM (active) | IC50 [5]: 10.5 µM (active) | IC50 [6]: 33.1 µM (active) | IC50 [7]: 9.44 µM (active)

Nc1nc(C2CC2)c(Sc2sc(N)nc2C2CC2)s1
AC50 [1]: 0.511 µM (active) | IC50 (Vero [2]): > 25 µM (active)

O=C(/C=C/c1ccccc1)n1cnnc1SC/C=C/c1ccccc1
IC50 (Caspase-3): 37.3 µM (active) | IC50 [5]: 8.8 µM (active) | IC50 [6]: 15.2 µM (active) | IC50 [7]: 25.6 µM (active)

CCn1c(C)nc2cc(C(=O)OC(C(F)(F)C(F)F)C(F)(F)C(F)F)ccc21
CC50 [14]: > 40 µM (active) | IC50 (Vero [2]): 24.4 µM (active) | CC50 (Vero [3]): > 25 µM (active)

Cc1ccc(CNC(=O)CSc2nc3ccsc3c(=O)n2Cc2ccc(C(=O)O)cc2)cc1
IC50 [8]: > 20 µM (inactive)

CCCCCc1cc(=O)oc2c(C(CCN(CC)CC)c3cc(OC)c(OC)c(OC)c3)c(OC)cc(OC)c12 (stereo unspecified)
AC50 [15]: 7.71 µM (active) | IC50 [8]: > 20 µM (inactive)

Oc1ccc(C=NNC(=S)Nc2cccnc2)nc1
IC50 (Nonstructural protein 1): 0.992 µM (active)

O=C(Nc1cccc(Cl)c1)Nc1ccccc1C(=O)NCc1ccco1
IC50 (Caspase-3): 21.4 µM (active) | IC50 [5]: 4.05 µM (active) | IC50 [6]: 4.44 µM (active) | IC50 [7]: > 100 µM (inactive)

COc1ccc(C2C3=C(CC(C)(C)CC3=O)Oc3ncn(Cc4ccco4)c(=N)c32)cc1 (stereo unspecified)
IC50 (Nonstructural protein 1): > 100 µM (active)

O=[N+]([O-])c1cccc(-c2cn3c([n+]2-c2ccccc2)SCC3)c1
IC50 (Vero [2]): 5.3 µM (active)

Reference: ChEMBL document CHEMBL1201862, “PubChem BioAssay data set” (2004)
